# Laboratory results taken from PubChem BioAssay (NCI).
#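 96-well plates; 48 h exposure; 5 concentrations. Endpoints by linear interpolation between flanking doses. Not reached: highest tested concentration assigned. Here, GI50 denotes the concentration required for 50% inhibition of growth. TGI is the concentration that stops growth completely.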
# Columns and labels:
# Assay in all cases: growth of human tumour cells (NCI), 48 h
# [1] = system: HCT-116 colon
# [2] = system: U251 CNS
# [3] = system: HT29 colon
# [4] = system: HOP-62 NSCLC
# [5] = system: SF-268 CNS
# [6] = system: NCI-H226 lung
# [7] = system: OVCAR-4 ovarian
# [8] = system: SW-620 colon
# [9] = system: K-562 leukemia
# [10] = system: LOX IMVI melanoma
# [11] = system: NCI/ADR-RES ovarian
# [12] = system: HL-60(TB) leukemia
# [13] = system: CAKI-1 renal
# [14] = system: HOP-92 NSCLC
# [15] = system: NCI-H23 lung
# [16] = system: SK-OV-3 ovarian
# [17] = system: MOLT-4 leukemia
# [18] = system: UO-31 renal
# [19] = system: T-47D breast
# [20] = system: IGROV1 ovarian
# [21] = system: MDA-MB-435
# [22] = system: M14 melanoma
# [23] = system: MCF7 breast
# [24] = system: PC-3 prostate
# [25] = system: HS 578T breast
# [26] = system: KM12 colon
# [27] = system: OVCAR-3 ovarian
# [28] = system: SF-539 CNS
# [29] = system: UACC-257 melanoma
# [30] = system: A549 NSCLC
# [31] = system: SK-MEL-5 melanoma
# [32] = system: RPMI-8226 leukemia
# [33] = system: NCI-H460 lung
# [34] = system: DU-145 prostate
# [35] = system: RXF 393 renal
# [36] = system: ACHN renal
# [37] = system: OVCAR-5 ovarian
# [38] = system: EKVX NSCLC
# [39] = system: MALME-3M melanoma
# [40] = system: SR leukemia
# [41] = system: HCC-2998 colon
# [42] = system: BT-549 breast
# [43] = system: COLO 205 colon
# [44] = system: CCRF-CEM leukemia
# [45] = system: HCT-15 colon
# [46] = system: SK-MEL-2 melanoma
# [47] = system: TK-10 renal
# [48] = system: OVCAR-8 ovarian
# [49] = system: SNB-75 CNS
# [50] = system: MDA-MB-231 breast
# [51] = system: 786-0 renal
# [52] = system: SNB-19 CNS
# [53] = system: SF-295 CNS
# [54] = system: NCI-H522 lung
# [55] = system: SN12C renal
# [56] = system: UACC-62 melanoma
# [57] = system: A498 renal
# [58] = system: SK-MEL-28 melanoma
structure (smiles),measurement,setting,value
O=C1/C(=C/c2ccc(O)c(O)c2)COc2ccc(-c3ccccc3)cc21,GI50,[1],1.23 µM
same,TGI,[1],2.65 µM
same,GI50,[2],1.45 µM
same,TGI,[2],3.38 µM
same,GI50,[3],1.5 µM
same,TGI,[3],3.16 µM
same,GI50,[4],3.55 µM
same,TGI,[4],11.6 µM
same,GI50,[5],2.11 µM
same,TGI,[5],7.33 µM
same,GI50,[6],4.15 µM
same,TGI,[6],32.8 µM
same,GI50,[7],2.2 µM
same,TGI,[7],10.2 µM
same,GI50,[8],0.875 µM
same,TGI,[8],2.46 µM
same,GI50,[9],1.85 µM
same,TGI,[9],8.31 µM
same,GI50,[10],1.43 µM
same,TGI,[10],2.84 µM
same,GI50,[11],2.24 µM
same,TGI,[11],> 26.8 µM
same,GI50,[12],0.435 µM
same,TGI,[12],4.47 µM
same,GI50,[13],3.66 µM
same,TGI,[13],33.2 µM
same,GI50,[14],1.74 µM
same,TGI,[14],8.59 µM
same,GI50,[15],2.28 µM
same,TGI,[15],10.9 µM
same,GI50,[16],4.77 µM
same,TGI,[16],37.7 µM
same,GI50,[17],0.531 µM
same,TGI,[17],4.73 µM
same,GI50,[18],1.22 µM
same,TGI,[18],2.93 µM
same,GI50,[19],0.959 µM
same,TGI,[19],3.61 µM
same,GI50,[20],1.39 µM
same,TGI,[20],6.41 µM
same,GI50,[21],1.17 µM
same,TGI,[21],3.48 µM
same,GI50,[22],2.02 µM
same,TGI,[22],5.28 µM
same,GI50,[23],0.666 µM
same,TGI,[23],5.06 µM
same,GI50,[24],1.8 µM
same,TGI,[24],10.7 µM
same,GI50,[25],3.21 µM
same,TGI,[25],13.9 µM
same,GI50,[26],1.42 µM
same,TGI,[26],3.39 µM
same,GI50,[27],0.874 µM
same,TGI,[27],3.48 µM
same,GI50,[28],1.91 µM
same,TGI,[28],3.89 µM
same,GI50,[29],3.89 µM
same,TGI,[29],16.9 µM
same,GI50,[30],3.16 µM
same,TGI,[30],18.1 µM
same,GI50,[31],1.57 µM
same,TGI,[31],3.77 µM
same,GI50,[32],0.187 µM
same,TGI,[32],0.588 µM
same,GI50,[33],1.99 µM
same,TGI,[33],5.67 µM
same,GI50,[34],1.77 µM
same,TGI,[34],4.48 µM
same,GI50,[35],1.71 µM
same,TGI,[35],3.86 µM
same,GI50,[36],1.53 µM
same,TGI,[36],3.22 µM
same,GI50,[37],3.71 µM
same,TGI,[37],16.1 µM
same,GI50,[38],5.39 µM
same,TGI,[38],18.1 µM
same,GI50,[39],1.7 µM
same,TGI,[39],5.55 µM
same,GI50,[40],0.616 µM
same,GI50,[41],1.49 µM
same,TGI,[41],2.98 µM
same,GI50,[42],2.37 µM
same,TGI,[42],10.6 µM
same,GI50,[43],0.732 µM
same,TGI,[43],2.15 µM
same,GI50,[44],0.329 µM
same,GI50,[45],0.697 µM
same,TGI,[45],2.24 µM
same,GI50,[46],3.64 µM
same,TGI,[46],10.7 µM
same,GI50,[47],1.73 µM
same,TGI,[47],6.91 µM
same,GI50,[48],3.29 µM
same,TGI,[48],22 µM
same,GI50,[49],2.98 µM
same,TGI,[49],11.6 µM
same,GI50,[50],2.26 µM
same,TGI,[50],8.47 µM
same,GI50,[51],1.94 µM
same,TGI,[51],5.55 µM
same,GI50,[52],3.51 µM
same,TGI,[52],14.7 µM
same,GI50,[53],2.84 µM
same,TGI,[53],13 µM
same,GI50,[54],0.334 µM
same,TGI,[54],1.16 µM
same,GI50,[55],2.47 µM
same,TGI,[55],10.6 µM
same,GI50,[56],2.01 µM
same,TGI,[56],5.78 µM
same,GI50,[57],2.2 µM
same,TGI,[57],7.71 µM
same,GI50,[58],1.6 µM
same,TGI,[58],3.07 µM
Oc1ccccc1N=Cc1c(O)ccc2ccccc12,GI50,[1],13 µM
same,TGI,[1],46 µM
same,GI50,[2],19.8 µM
same,TGI,[2],67.9 µM
same,GI50,[3],16.4 µM
same,TGI,[3],40.1 µM
same,GI50,[4],17.5 µM
same,TGI,[4],97.6 µM
same,GI50,[5],15.8 µM
same,TGI,[5],76.8 µM
same,GI50,[6],11.5 µM
same,TGI,[6],61.7 µM
same,GI50,[7],13.4 µM
same,TGI,[7],75.4 µM
same,GI50,[8],17.3 µM
same,TGI,[8],> 100 µM
same,GI50,[9],15.3 µM
same,TGI,[9],> 100 µM
same,GI50,[10],10.6 µM
same,TGI,[10],45 µM
same,GI50,[11],5.58 µM
same,TGI,[11],40.8 µM
same,GI50,[12],4.95 µM
same,TGI,[12],33.3 µM
same,GI50,[13],5.61 µM
same,TGI,[13],26.6 µM
same,GI50,[14],3.17 µM
same,TGI,[14],18.5 µM
same,GI50,[15],13.8 µM
same,TGI,[15],49.8 µM
same,GI50,[16],15.9 µM
same,TGI,[16],54.7 µM
same,GI50,[17],10.2 µM
same,TGI,[17],80.3 µM
same,GI50,[18],3.59 µM
same,TGI,[18],28.3 µM
same,GI50,[19],7.5 µM
same,TGI,[19],54.9 µM
same,GI50,[20],4.84 µM
same,TGI,[20],26.1 µM
same,GI50,[21],17 µM
same,TGI,[21],52.6 µM
same,GI50,[22],13.4 µM
same,TGI,[22],40.2 µM
same,GI50,[23],8.35 µM
same,TGI,[23],52.3 µM
same,GI50,[24],7.28 µM
same,TGI,[24],66.2 µM
same,GI50,[25],15 µM
same,TGI,[25],> 100 µM
same,GI50,[26],16.5 µM
same,TGI,[26],> 100 µM
same,GI50,[27],11.9 µM
same,TGI,[27],46.1 µM
same,GI50,[28],14.2 µM
same,TGI,[28],39 µM
same,GI50,[29],15.2 µM
same,TGI,[29],56.6 µM
same,GI50,[30],24.6 µM
same,TGI,[30],91.9 µM
same,GI50,[31],9.99 µM
same,TGI,[31],34.7 µM
same,GI50,[32],2.77 µM
same,TGI,[32],37 µM
same,GI50,[33],10.7 µM
same,TGI,[33],47 µM
same,GI50,[34],19.5 µM
same,TGI,[34],> 100 µM
same,GI50,[35],10.6 µM
same,TGI,[35],34.6 µM
same,GI50,[36],4.96 µM
same,TGI,[36],42.6 µM
same,GI50,[37],24.6 µM
same,TGI,[37],62.9 µM
same,GI50,[38],15.8 µM
same,TGI,[38],57.8 µM
same,GI50,[39],5 µM
same,TGI,[39],27 µM
same,GI50,[40],15.3 µM
same,TGI,[40],47.7 µM
same,GI50,[41],16.5 µM
same,TGI,[41],72.4 µM
same,GI50,[42],5.88 µM
same,TGI,[42],30 µM
same,GI50,[43],30.7 µM
same,TGI,[43],> 100 µM
same,GI50,[44],3.2 µM
same,TGI,[44],47.1 µM
same,GI50,[45],15.3 µM
same,TGI,[45],> 100 µM
same,GI50,[46],13.3 µM
same,TGI,[46],40.5 µM
same,GI50,[47],14.2 µM
same,TGI,[47],66.2 µM
same,GI50,[48],18.1 µM
same,TGI,[48],72 µM
same,GI50,[49],10.4 µM
same,TGI,[49],62.5 µM
same,GI50,[50],5.75 µM
same,TGI,[50],27.5 µM
same,GI50,[51],19.5 µM
same,TGI,[51],68.3 µM
same,GI50,[52],21.8 µM
same,TGI,[52],> 100 µM
same,GI50,[53],11.7 µM
same,TGI,[53],40.4 µM
same,GI50,[54],6.73 µM
same,TGI,[54],39.3 µM
same,GI50,[55],15.4 µM
same,TGI,[55],71.9 µM
same,GI50,[56],9.78 µM
same,TGI,[56],38.5 µM
same,GI50,[57],5.61 µM
same,TGI,[57],23.6 µM
same,GI50,[58],22.4 µM
same,TGI,[58],84.5 µM
